Source: PMC3306999 (Journal of Toxicology, 2012)
Where two headings read alike, the source gives them in different places.

Tests used:
MAO-B [1] = conditions: St. Lawrence River (Lake St. Pierre, Quebec) fish-eating population; ref Stamler et al. 2006 [68]; cited from earlier work
[2] = target: cholinergic muscarinic receptors (MRs) in lymphocytes; test: Spleen lymphocyte MR density and affinity after perinatal exposure; assay type: in vivo, rat
Experimental: (§1) The experimental regimen comprises 0.5 and 1 mg MeHg/kg (body weight) bw/day, administered to rat dams in the drinking water from gestational day (GD)7 to postnatal (PD)7, and/or PCB153 (20 mg/kg/day) dissolved in corn oil, administered to rats from GD10 to GD16.
(§2) The endpoints investigated in rats included total cholinergic MRs and MAO-B activity in cerebellum and total MRs in lymphocytes at weaning (i.e., PD21) both in dams and their offspring.
(§3) At the day of sacrifice, rat brains were rapidly dissected on ice to isolate cerebellum from dams and offspring and stored at −80°C until the analyses were performed. Spleens were also collected.
(i) Rat lymphocytes were obtained from the spleen of controls and differently treated animals. MR density and affinity in rat lymphocytes were determined as described in [52].

[3] = assay type: in vivo, rat
Experimental: as §1
Measurements of total Hg in cerebellum and blood also complemented the molecular studies to correlate neurochemical changes with the internal doses (see methods in [43, 52, 73]).

[4] = test system: cholinergic muscarinic receptors (MRs); assay type: in vivo, rat; conditions: for increase of cerebellar MRs density (Bmax): MeHg 1 mg/kg/day GD7-PND7; for effect on cerebellar dissociation constant (Kd) of [3H]QNB: rat, in vivo
[5] = assay type: in vivo, rat; conditions: MeHg 1 mg/kg/day; whole brain
MAO-B [6] = target: T1, MAO-B (Rattus norvegicus, UniProt P19643); test: Cerebellar MAO-B activity (radiochemical, 14C-PEA) after perinatal exposure; assay type: in vivo; conditions: for decrease of cerebellar MAO-B activity: male pups PD21, maternal oral MeHg 1 mg/kg/day GD7-PND7 and/or PCB153 20 mg/kg/day GD10–GD16, vs control 19.26 ± 2.05 nmol/mg protein/h
T1 construct: from tissue; host or cells: rat cerebellum homogenate (dams and PD21 offspring)
T1 sequence (P19643 whole entry): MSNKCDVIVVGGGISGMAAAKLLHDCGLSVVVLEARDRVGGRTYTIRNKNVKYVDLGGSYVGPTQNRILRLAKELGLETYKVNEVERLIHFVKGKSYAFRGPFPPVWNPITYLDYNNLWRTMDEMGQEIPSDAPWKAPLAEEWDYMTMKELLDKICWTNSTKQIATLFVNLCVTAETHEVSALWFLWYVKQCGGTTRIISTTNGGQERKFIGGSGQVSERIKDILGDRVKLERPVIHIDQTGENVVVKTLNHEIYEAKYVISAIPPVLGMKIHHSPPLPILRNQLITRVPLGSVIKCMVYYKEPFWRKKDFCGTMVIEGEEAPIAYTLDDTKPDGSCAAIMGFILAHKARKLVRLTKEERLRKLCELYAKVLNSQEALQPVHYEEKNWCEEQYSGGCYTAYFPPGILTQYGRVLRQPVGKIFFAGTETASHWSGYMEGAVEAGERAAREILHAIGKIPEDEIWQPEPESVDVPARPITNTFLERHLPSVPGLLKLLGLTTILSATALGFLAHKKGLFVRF
Experimental: as §1, §2, §3
(ii) MAO-B activity was determined radiochemically as described by Young et al., 1986 [71] using 10 μM ^14C-PEA as the substrate. Specific MAO-B activity was determined in the presence of 100 μM pargyline hydrochloride. The reaction was started by addition of ^14C-PEA to 50 μL of tissue homogenate (0.2 mL final volume) and stopped by addition of 0.1 mL citric acid 2 M after a 15-min incubation at 37°C. Deaminated reaction products were extracted into 3 mL toluene-ethylacetate (1 : 1, v/v) and the radioactivity contained in a 1-mL aliquot of the organic phase was counted in scintillation counter. The enzyme activity was expressed as nmol/mg protein/h.

[7] = 21-day-old, same treatments, mean ± S.D.

In the case of [CH3][Hg][Cl] [MeHg, methylmercury], the “blood-Hg concentrations associated with MeHg-induced reduction in MAO-B activity” value (MAO-B [1]) is given as “above 3.4 μg/L”, the “effect on lymphocyte Kd values” ([2]; MeHg 1 mg/kg/day, dams and offspring) is given as “absence of any change” and the “increase of lymphocyte MR density (Bmax)” value ([2]; dams, MeHg 1 mg/kg/day GD7-PND7, vs control 33 ± 4 fmol/million cells) is given as 139%. The “increase of lymphocyte MR density (Bmax)” value ([2]; female offspring 21 days old, MeHg 1 mg/kg/day, vs control 37 ± 4 fmol/million cells) was 73%, the “effect on lymphocyte Kd values” ([2]; lower MeHg dose 0.5 mg/kg/day) was “devoid of any effect” and the “effect on lymphocyte MR density” value ([2]; lower MeHg dose 0.5 mg/kg/day, all groups, day 21 postpartum) was “did not significantly differ”. For the same molecule, the “increase of lymphocyte MR density (Bmax)” value ([2]; male offspring 21 days old, MeHg 1 mg/kg/day, vs control 41 ± 8 fmol/million cells) was 49%, the “Blood Hg, Dams” value ([3]; 1 mg MeHg/kg bw/day GD7-PD7 and/or 20 mg PCB153/kg bw/day GD10–GD16, mean ± S.D.) was 11.33 ± 2.26 n = 4 μg/ml and the “Blood Hg, Offspring Female” value [3, 7] was 1.31 ± 0.40 n = 4 μg/ml. The “Blood Hg, Offspring Male” value [3, 7] was 1.35 ± 0.40 n = 4 μg/ml, the “Brain Hg, Offspring Female” value [3, 7] was 1.52 ± 0.33 n = 4 μg/g and the “Brain Hg, Offspring Male” value [3, 7] was 1.67 ± 0.43 n = 4 μg/g. For the same molecule, the “Hg in rat blood at PD21” value ([3]; perinatal 1 mg MeHg/kg/day) was 1300 ppb, the “cerebral Hg levels in weaning rats” value ([3]; perinatal 1 mg MeHg/kg/day) was 1.5–2.8 ppm and the “blood Hg levels in weaning rats” value ([3]; perinatal 1 mg MeHg/kg/day, both pup genders) was 1.3 ± 0.4 µg/mL. The “Hg levels in pup blood” value ([3]; pups, both genders, MeHg 1 mg/kg/day) was 1.35 ± 0.4 mg/L, the “Brain Hg, Dams” value ([3]; same treatments) was 7.53 µg/g and the “increase of cerebellar MRs density (Bmax)” value ([4]; dams, PD21) was 87%. For the same molecule, the “effect on cerebellar MR density” value ([4]; lower MeHg dose 0.5 mg/kg/day alone or in combination with PCB153, mother and offspring) was “did not cause any change”, the “increase of cerebellar MRs density (Bmax)” value ([4]; male pups PD21) was 27% and the “effect on cerebellar dissociation constant (Kd) of [3H]QNB” value [4] was “did not affect”. For the same molecule, the “brain Hg concentration, mother versus offspring” value [5] was “about five-fold higher”, the “effect on MAO-B activity” value (MAO-B [6]; lower MeHg dose 0.5 mg/kg/day GD7-PND7, male and female offspring) was “no effects” and the “decrease of cerebellar MAO-B activity” value (MAO-B [6]) was 35%.

In the case of Clc1cc(Cl)c(-c2cc(Cl)c(Cl)cc2Cl)cc1Cl [PCB153, 2,2′,4,4′,5,5′-hexachlorobiphenyl], the “effect of PCB153 coexposure on brain Hg concentrations” value ([3]; MeHg 1 mg/kg/day + PCB153) is reported as “not affected”, the “effect on cerebellar MRs density” value ([4]; adult and offspring PD21, PCB153 20 mg/kg/day GD10–GD16 alone or with MeHg 1 mg/kg/day) is reported as “did not modify” and the “effect on cerebellar dissociation constant (Kd) of [3H]QNB” value [4] is reported as “did not affect”. The “decrease of cerebellar MAO-B activity” value (MAO-B [6]) was 45%.
